The assay concerns WM3928 cells. Briefly: WM3928 cell proliferation assay (2), resazurin, 384-well. The assay is classed as cell-based. Conditions: inhibition of cell proliferation, 67-72 hours. Here is the method:
WM3928 Cell Proliferation Assay (2)
WM3928 cells (#WM3928-01-0001) are obtained from Rockland Immunochemicals Inc (Gilbertsville, PA). Briefly, cells were grown in MCDB 153 medium (Sigma, #M7403, St. Louis, MO) supplemented with 20% Leibovitz's L-15 (ThermoFisher #11415-064, Waltham, MA), 2% heat inactivated fetal bovine serum (ThermoFisher, #A3840001, Waltham, MA), 5 μg/mL Insulin (Bovine Pancreas) (Sigma, #I0516, St. Louis, MO), 1.68 mM Calcium Chloride (Sigma, #C-34006, St. Louis, MO) and 1% Penicillin/Streptomycin/L-Glutamine (ThermoFisher #10378016, Waltham, MA) at 37° C., 5% CO2, and 95% humidity. Cells are expanded until reaching 70-95% confluency at which point they are sub-cultured or harvested for assay use. Using the Beckman Coulter Echo 650, a serial dilution of test compound is dispensed into a 384-well black clear bottom plate in triplicate. Seven hundred fifty cells are added per well in 50 μL complete growth medium in the 384-well plate. Plates are incubated for 67-72 hours at 37° C., 5% CO2, and 95% humidity. At the end of the incubation, 10 μL of a 440 μM solution of resazurin (Sigma, #199303, St. Louis, MO) in PBS is added to each well of the plate and plates are incubated for an additional 3-6 hours at 37° C., 5% CO2, and 95% humidity. Plates are read on a Synergy2 or equivalent reader (Biotek, Winooski VT) using an excitation of 540 nm and an emission of 600 nm. Data is analyzed using Prism software (GraphPad, San Diego, CA) to calculate IC50 values.
For orientation: Resazurin is reduced to fluorescent resorufin, in cell work by metabolically active cells.

Usually IC50 stands for the concentration that gives 50% inhibition. For `Cc1ccc(NC(=O)N2CC[C@H](C(F)(F)F)C2)cc1-c1cncc(-c2cc(NC(=O)C3CC3)ncn2)c1` [Example 195], the half-inhibitory concentration (IC50) was at most 100 nM. Under `Cc1cc(F)c(NC(=O)N2CC[C@H](C(F)(F)F)C2)cc1-c1cncc(-c2cc(NC(=O)C3CC3)ncn2)c1` [Example 216] stands at most 100 nM.
